Test results published in ChEMBL document CHEMBL3885861, “Open TG-GATES”.

Species on record: Rattus norvegicus
Test: Open TG-GATES - Regimen: Daily Repeat
Assay type: toxicity, organism-based, Sprague-Dawley
Design: regimen Daily Repeat, gender Male, age 6 weeks
Conditions: in vivo, po, 0 mg/kg, route gavage, dose level Control; for APTT / Bas / Eos / Fbg / Hb / Ht / Lym / MCH / MCHC / MCV / Mono / Neu / PT / Plat / RBC / Ret / WBC: tissue Blood; for KIDNEY_L / KIDNEY_R / KIDNEY_TOTAL: tissue Kidney; for LIVER: tissue Liver; for A/G / ALP / ALT / AST / BUN / CRE / Ca / Cl / DBIL / GLC / IP / K / LDH / Na / PL / RALB / TBIL / TC / TG / TP / gamma-GTP: tissue Plasma

Compound: O=C(O)COc1nn(Cc2ccccc2)c2ccccc12 [BENDAZAC]
- TERMINAL_BW (72 h, time 3 day): 229.2 g
- APTT (72 h, time 3 day): 17.5 s
- Bas (72 h, time 3 day): 0%
- Eos (72 h, time 3 day): 1.2%
- Fbg (72 h, time 3 day): 223.2 mg/dL
- Hb (72 h, time 3 day): 14.2 g/dL
- Ht (72 h, time 3 day): 42.6%
- Lym (72 h, time 3 day): 77.2%
- MCH (72 h, time 3 day): 21.4 pg
- MCHC (72 h, time 3 day): 33.3%
- MCV (72 h, time 3 day): 64.4 fL
- Mono (72 h, time 3 day): 8.2%
- Neu (72 h, time 3 day): 13.8%
- PT (72 h, time 3 day): 11.6 s
- Plat (72 h, time 3 day): 120.1 x10_4/uL
- RBC (72 h, time 3 day): 661.6 x10_4/ul
- Ret (72 h, time 3 day): 6.5%
- WBC (72 h, time 3 day): 93.7 x10_2/uL
- KIDNEY_L (72 h, time 3 day): 1 g
- KIDNEY_R (72 h, time 3 day): 1 g
- KIDNEY_TOTAL (72 h, time 3 day): 2 g
- LIVER (72 h, time 3 day): 11.2 g
- A/G (72 h, time 3 day): 2.1
- ALP (72 h, time 3 day): 1059.4 IU/L
- ALT (72 h, time 3 day): 41.4 IU/L
- AST (72 h, time 3 day): 68.6 IU/L
- BUN (72 h, time 3 day): 16.6 mg/dL
- CRE (72 h, time 3 day): 0.5 mg/dL
- Ca (72 h, time 3 day): 10.9 mg/dL
- Cl (72 h, time 3 day): 103.4 meq/L
- DBIL (72 h, time 3 day): 0.022 mg/dL
- GLC (72 h, time 3 day): 206.8 mg/dL
- IP (72 h, time 3 day): 7.7 mg/dL
- K (72 h, time 3 day): 4.7 meq/L
- LDH (72 h, time 3 day): 101.4 IU/L
- Na (72 h, time 3 day): 139.8 meq/L
- PL (72 h, time 3 day): 162.8 mg/dL
- RALB (72 h, time 3 day): 3.9 g/dL
- TBIL (72 h, time 3 day): 0.3 mg/dL
- TC (72 h, time 3 day): 78.2 mg/dL
- TG (72 h, time 3 day): 127.8 mg/dL
- TP (72 h, time 3 day): 5.7 g/dL
- gamma-GTP (72 h, time 3 day): 1.2 IU/L
- TERMINAL_BW ([…], time 7 day): 264.6 g
- TERMINAL_BW ([…], time 14 day): 318.4 g
- TERMINAL_BW ([…], time 28 day): 399.8 g
- APTT ([…], time 7 day): 16.9 s
- Bas ([…], time 7 day): 0%
- Eos ([…], time 7 day): 0.8%
- Fbg ([…], time 7 day): 228.6 mg/dL
- Hb ([…], time 7 day): 14.1 g/dL
- Ht ([…], time 7 day): 41.4%
- Lym ([…], time 7 day): 80.8%
- MCH ([…], time 7 day): 21.5 pg
- MCHC ([…], time 7 day): 34.1%
- MCV ([…], time 7 day): 63.2 fL
- Mono ([…], time 7 day): 6%
- Neu ([…], time 7 day): 12.6%
- PT ([…], time 7 day): 11.5 s
- Plat ([…], time 7 day): 128.1 x10_4/uL
- RBC ([…], time 7 day): 657 x10_4/ul
- Ret ([…], time 7 day): 5.1%
- WBC ([…], time 7 day): 96.5 x10_2/uL
- APTT ([…], time 14 day): 17.2 s
- Bas ([…], time 14 day): 0%
- Eos ([…], time 14 day): 0.8%
- Fbg ([…], time 14 day): 236 mg/dL
- Hb ([…], time 14 day): 14.5 g/dL
- Ht ([…], time 14 day): 43%
- Lym ([…], time 14 day): 80.4%
- MCH ([…], time 14 day): 21.2 pg
- MCHC ([…], time 14 day): 33.8%
- MCV ([…], time 14 day): 62.8 fL
- Mono ([…], time 14 day): 7%
- Neu ([…], time 14 day): 11.8%
- PT ([…], time 14 day): 11 s
- Plat ([…], time 14 day): 122.8 x10_4/uL
- RBC ([…], time 14 day): 684.4 x10_4/ul
- Ret ([…], time 14 day): 4.3%
- WBC ([…], time 14 day): 120.8 x10_2/uL
- APTT ([…], time 28 day): 17.8 s
- Bas ([…], time 28 day): 0%
- Eos ([…], time 28 day): 1%
- Fbg ([…], time 28 day): 219 mg/dL
- Hb ([…], time 28 day): 15.5 g/dL
- Ht ([…], time 28 day): 45.9%
- Lym ([…], time 28 day): 83.6%
- MCH ([…], time 28 day): 19.8 pg
- MCHC ([…], time 28 day): 33.7%
- MCV ([…], time 28 day): 58.8 fL
- Mono ([…], time 28 day): 4.2%
- Neu ([…], time 28 day): 11.4%
- PT ([…], time 28 day): 11.7 s
- Plat ([…], time 28 day): 115.9 x10_4/uL
- RBC ([…], time 28 day): 779.8 x10_4/ul
- Ret ([…], time 28 day): 3.5%
- WBC ([…], time 28 day): 117.2 x10_2/uL
- KIDNEY_L ([…], time 7 day): 1.1 g
- KIDNEY_R ([…], time 7 day): 1.2 g
- KIDNEY_TOTAL ([…], time 7 day): 2.3 g
- KIDNEY_L ([…], time 14 day): 1.3 g
- KIDNEY_R ([…], time 14 day): 1.3 g
- KIDNEY_TOTAL ([…], time 14 day): 2.6 g
- KIDNEY_L ([…], time 28 day): 1.4 g
- KIDNEY_R ([…], time 28 day): 1.4 g
- KIDNEY_TOTAL ([…], time 28 day): 2.8 g
- LIVER ([…], time 7 day): 13.2 g
- LIVER ([…], time 14 day): 15.1 g
- LIVER ([…], time 28 day): 16.2 g
- A/G ([…], time 7 day): 2
- ALP ([…], time 7 day): 804.6 IU/L
- ALT ([…], time 7 day): 30 IU/L
- AST ([…], time 7 day): 60.8 IU/L
- BUN ([…], time 7 day): 19.6 mg/dL
- CRE ([…], time 7 day): 0.5 mg/dL
- Ca ([…], time 7 day): 11.3 mg/dL
- Cl ([…], time 7 day): 103.6 meq/L
- DBIL ([…], time 7 day): 0.012 mg/dL
- GLC ([…], time 7 day): 222.6 mg/dL
- IP ([…], time 7 day): 8 mg/dL
- K ([…], time 7 day): 4.8 meq/L
- LDH ([…], time 7 day): 84.8 IU/L
- Na ([…], time 7 day): 141.2 meq/L
- PL ([…], time 7 day): 146.2 mg/dL
- RALB ([…], time 7 day): 3.9 g/dL
- TBIL ([…], time 7 day): 0.3 mg/dL
- TC ([…], time 7 day): 70 mg/dL
- TG ([…], time 7 day): 111 mg/dL
- TP ([…], time 7 day): 5.8 g/dL
- gamma-GTP ([…], time 7 day): 1 IU/L
- A/G ([…], time 14 day): 1.6
- ALP ([…], time 14 day): 749.8 IU/L
- ALT ([…], time 14 day): 32 IU/L
- AST ([…], time 14 day): 61.2 IU/L
- BUN ([…], time 14 day): 18.2 mg/dL
- CRE ([…], time 14 day): 0.5 mg/dL
- Ca ([…], time 14 day): 10.4 mg/dL
- Cl ([…], time 14 day): 105.4 meq/L
- DBIL ([…], time 14 day): 0.006 mg/dL
- GLC ([…], time 14 day): 197.2 mg/dL
- IP ([…], time 14 day): 7.1 mg/dL
- K ([…], time 14 day): 4.7 meq/L
- LDH ([…], time 14 day): 102.2 IU/L
- Na ([…], time 14 day): 141.2 meq/L
- PL ([…], time 14 day): 158 mg/dL
- RALB ([…], time 14 day): 3.8 g/dL
- TBIL ([…], time 14 day): 0.3 mg/dL
- TC ([…], time 14 day): 74.8 mg/dL
- TG ([…], time 14 day): 153.2 mg/dL
- TP ([…], time 14 day): 6.2 g/dL
- gamma-GTP ([…], time 14 day): 2.4 IU/L
- A/G ([…], time 28 day): 1.4
- ALP ([…], time 28 day): 590.2 IU/L
- ALT ([…], time 28 day): 33.2 IU/L
- AST ([…], time 28 day): 64.4 IU/L
- BUN ([…], time 28 day): 20 mg/dL
- CRE ([…], time 28 day): 0.6 mg/dL
- Ca ([…], time 28 day): 10 mg/dL
- Cl ([…], time 28 day): 104.8 meq/L
- DBIL ([…], time 28 day): 0.01 mg/dL
- GLC ([…], time 28 day): 189.8 mg/dL
- IP ([…], time 28 day): 6.4 mg/dL
- K ([…], time 28 day): 4.4 meq/L
- LDH ([…], time 28 day): 71.4 IU/L
- Na ([…], time 28 day): 140.4 meq/L
- PL ([…], time 28 day): 142.8 mg/dL
- RALB ([…], time 28 day): 3.6 g/dL
- TBIL ([…], time 28 day): 0.3 mg/dL
- TC ([…], time 28 day): 71.2 mg/dL
- TG ([…], time 28 day): 130 mg/dL
- TP ([…], time 28 day): 6.2 g/dL
- gamma-GTP ([…], time 28 day): 1.8 IU/L
